Data reported in patent US11180462B2, “Microbiocidal oxadiazole derivatives” (SYNGENTA PARTICIPATIONS AG, priority 2015, dated 2021).

What was measured:
[1] = test system: Puccinia recondita f. Sp. Tritici; assay: Fungicidal activity against Puccinia recondita f. sp. tritici / wheat / leaf disc preventative (brown rust); format: in vivo; conditions: foliar, 200 ppm in the applied formulation, wheat leaf segments, preventative, compared to untreated control leaf disks, read-out: disease control
Procedure, shortened: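 Percent disease control relative to untreated check segments is scored once disease develops, 7 to 9 days after application. Wheat cv. Kanzler segments receive compound spray (200 ppm in formulation) one day before spore inoculation, then sit at 19° C. and 75% rh under 12 h light/12 h dark.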

Phakopsora Pachyrhizi = assay: Fungicidal activity against Phakopsora pachyrhizi / soybean / leaf disc preventative (Asian soybean rust); format: in vivo; conditions: foliar, 200 ppm in the applied formulation, soybean leaf disks, compared to untreated control leaf disks, read-out: disease control
Procedure, shortened: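 Scored 12 to 14 days post-application as percent control relative to untreated check discs, rust spores were sprayed under the disc one day after compound treatment. Incubation: 20°C, 75% rh, first 24–36 h in darkness, then 12 h daily light; discs kept on water agar.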

[2] = test system: Glomerella lagenarium (Colletotrichum lagenarium); assay: Fungicidal activity against Glomerella lagenarium (Colletotrichum lagenarium) liquid culture / cucumber / preventative (anthracnose); format: cell-based; conditions: Colletotrichum orbiculare; 20 ppm in the applied formulation; liquid culture (PDB), growth inhibition measured photometrically after 3 to 4 days; compared to untreated control; read-out: disease control
Procedure, shortened: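 Percent activity against the untreated check was derived from photometric growth measurements made 2 to 7 days after conidia in potato dextrose broth were combined with compound at 20 ppm. Cultures were kept dark at 24 °C and 96% humidity.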

CCON(Cc1ccc(-c2noc(C(F)(F)F)n2)cc1)C(=O)CC [Compound 1.562, N-ethoxy-N-[[4-[5-(trifiuoromethyl)-1,2,4-oxadiazol-3-yl]phenyl]methyl]-propanamide]
≥ 80%: pest or weed control at 200 ppm [1] | pest or weed control at 200 ppm (Phakopsora Pachyrhizi) | inhibition of growth at 20 ppm [2]

CON(Cc1ccc(-c2noc(C(F)(F)F)n2)c(F)c1F)C(=O)c1ccccc1Cl [Compound 1.576, 2-chloro-N-[[2,3-difluoro-4-[5-(trifluoromethyl)-1,2,4-oxadiazol-3-yl]phenyl]methyl]-N-methoxy-benzamide]
≥ 80%: pest or weed control at 200 ppm [1] | pest or weed control at 200 ppm (Phakopsora Pachyrhizi) | inhibition of growth at 20 ppm [2]

CCON(Cc1ccc(-c2noc(C(F)(F)F)n2)cc1)C(=O)C1CCC1 [Compound 1.619, N-ethoxy-N-[[4-[5-(trifluoromethyl)-1,2,4-oxadiazol-3-yl]phenyl]methyl]-cyclobutane-carboxamide]
≥ 80%: pest or weed control at 200 ppm [1] | pest or weed control at 200 ppm (Phakopsora Pachyrhizi) | inhibition of growth at 20 ppm [2]

CCON(Cc1ccc(-c2noc(C(F)(F)F)n2)cc1)C(=O)CC#N [Compound 1.627, 2-cyano-N-ethoxy-N-[[4-[5-(trifluoromethyl)-1,2,4-oxadiazol-3-yl)phenyl]methyl]-acetamide]
≥ 80%: pest or weed control at 200 ppm [1] | pest or weed control at 200 ppm (Phakopsora Pachyrhizi) | inhibition of growth at 20 ppm [2]

CCON(Cc1ccc(-c2noc(C(F)(F)F)n2)cc1)C(=O)C1(C#N)CC1 [Compound 1.628, 1-cyano-N-ethoxy-N-[[4-[5-(trifluoromethyl)-1,2,4-oxadiazol-3-yl]phenyl]methyl]-cyclopropane-carboxamide]
≥ 80%: pest or weed control at 200 ppm [1] | pest or weed control at 200 ppm (Phakopsora Pachyrhizi) | inhibition of growth at 20 ppm [2]

CCCCON(Cc1ccc(-c2noc(C(F)(F)F)n2)cc1)C(=O)C1CCOC1 (stereo not drawn) [Compound 1.636, N-butoxy-N-[[4-[5-(trifluoromethyl)-1,2,4-oxadiazol-3-yl]phenyl]methyl]-tetrahydrofuran-3-carboxamide]
≥ 80%: pest or weed control at 200 ppm [1] | pest or weed control at 200 ppm (Phakopsora Pachyrhizi) | inhibition of growth at 20 ppm [2]

CCCCON(Cc1ccc(-c2noc(C(F)(F)F)n2)cc1)C(=O)C(C)OC (stereo not drawn) [Compound 1.647, N-butoxy-2-methoxy-N-[[4-[5-(trifluoromethyl)-1,2,4-oxadiazol-3-yl]phenyl]methyl]-propanamide]
≥ 80%: pest or weed control at 200 ppm [1] | pest or weed control at 200 ppm (Phakopsora Pachyrhizi) | inhibition of growth at 20 ppm [2]

CC(C)N(Cc1ccc(-c2noc(C(F)(F)F)n2)cc1)C(=O)c1ccccc1Cl [Compound 1.672, 2-chloro-N-isopropyl-N-[[4-[5-(trifluoromethyl)-1,2,4-oxadiazol-3-yl]phenyl]methyl]-benzamide]
≥ 80%: pest or weed control at 200 ppm [1] | pest or weed control at 200 ppm (Phakopsora Pachyrhizi) | inhibition of growth at 20 ppm [2]

O=C(CC(F)(F)F)N(Cc1ccc(-c2noc(C(F)(F)F)n2)cc1)CC(F)(F)F [Compound 1.704, 3,3,3-trifluoro-N-(2,2,2-trifluoroethyl)-N-[[4-[5-(trifluoromethyl)-1,2,4-oxadiazol-3-yl]phenyl]methyl]-propanamide]
≥ 80%: pest or weed control at 200 ppm [1] | pest or weed control at 200 ppm (Phakopsora Pachyrhizi) | inhibition of growth at 20 ppm [2]

O=C(C1CC1(F)F)N(CCO)Cc1ccc(-c2noc(C(F)(F)F)n2)cc1 (stereo not drawn) [Compound 1.708, 2,2-difluoro-N-(2-hydroxyethyl)-N-[[4-[5-(trifluoromethyl)-1,2,4-oxadiazol-3-yl]phenyl]methyl]-cyclopropane-carboxamide]
≥ 80%: pest or weed control at 200 ppm [1] | pest or weed control at 200 ppm (Phakopsora Pachyrhizi) | inhibition of growth at 20 ppm [2]

O=C(c1ccccc1Cl)N(CCO)Cc1ccc(-c2noc(C(F)(F)F)n2)cc1 [Compound 1.709, 2-chloro-N-(2-hydroxyethyl)-N-[[4-[5-(trifluoromethyl)-1,2,4-oxadiazol-3-yl]phenyl]methyl]-benzamide]
≥ 80%: pest or weed control at 200 ppm [1] | pest or weed control at 200 ppm (Phakopsora Pachyrhizi) | inhibition of growth at 20 ppm [2]

O=C(OCCN(Cc1ccc(-c2noc(C(F)(F)F)n2)cc1)C(=O)C1CCC1)C1CCC1 [Compound 1.715, 2-[cyclobulanecarbonyl-[[4-[5-(trifluoromethyl)-1,2,4-oxadiazol-3-yl]phenyl]methyl]-amino]ethyl cyclobutane-carboxylate]
≥ 80%: pest or weed control at 200 ppm [1] | pest or weed control at 200 ppm (Phakopsora Pachyrhizi) | inhibition of growth at 20 ppm [2]

COCC(=O)OCCN(Cc1ccc(-c2noc(C(F)(F)F)n2)cc1)C(=O)COC [Compound 1.716, 2-[(2-methoxy-acetyl)-[[4-[5-(trifluoromethyl)-1,2,4-oxadiazol-3-yl]phenyl]methyl]-amino]ethyl 2-methoxyacetate]
≥ 80%: pest or weed control at 200 ppm [1] | pest or weed control at 200 ppm (Phakopsora Pachyrhizi) | inhibition of growth at 20 ppm [2]

CCC(C)C(=O)N(CCO)Cc1ccc(-c2noc(C(F)(F)F)n2)cc1 (stereo not drawn) [Compound 1.720, N-(2-hydroxyethyl)-2-methyl-N-[[4-[5-(trifluoromethyl)-1,2,4-oxadiazol-3-yl]phenyl]methyl]-butanamide]
≥ 80%: pest or weed control at 200 ppm [1] | pest or weed control at 200 ppm (Phakopsora Pachyrhizi) | inhibition of growth at 20 ppm [2]

N#CC1(C(=O)N(CCO)Cc2ccc(-c3noc(C(F)(F)F)n3)cc2)CC1 [Compound 1.729, 1-cyano-N-(2-hydroxyethyl)-N-[[4-[5-(trifluoromethyl)-1,2,4-oxadiazol-3-yl]phenyl]methyl]-cyclopropane-carboxamide]
≥ 80%: pest or weed control at 200 ppm [1] | pest or weed control at 200 ppm (Phakopsora Pachyrhizi) | inhibition of growth at 20 ppm [2]

O=C(CC(F)(F)F)N(CCO)Cc1ccc(-c2noc(C(F)(F)F)n2)cc1 [Compound 1.733, 3,3,3-trifluoro-N-(2-hydroxyethyl)-N-[[4-[5-(trifluoromethyl)-1,2,4-oxadiazol-3-yl]phenyl]methyl]-propanamide]
≥ 80%: pest or weed control at 200 ppm [1] | pest or weed control at 200 ppm (Phakopsora Pachyrhizi) | inhibition of growth at 20 ppm [2]

O=C(CC(F)(F)F)OCCN(Cc1ccc(-c2noc(C(F)(F)F)n2)cc1)C(=O)CC(F)(F)F [Compound 1.734, 2-[[4-[5-(trifluoromethyl)-1,2,4-oxadiazol-3-yl]phenyl]methyl-(3,3,3-trifluoropropanoyl)-amino]ethyl 3,3,3-trifluoropropanoate]
≥ 80%: pest or weed control at 200 ppm [1] | pest or weed control at 200 ppm (Phakopsora Pachyrhizi) | inhibition of growth at 20 ppm [2]

CC(=O)N(CCO)Cc1ccc(-c2noc(C(F)(F)F)n2)cc1 [Compound 1.735, N-(2-hydroxyethyl)-N-[[4-[5-(trifluoromethyl)-1,2,4-oxadiazol-3-yl]phenyl]methyl]-acetamide]
≥ 80%: pest or weed control at 200 ppm [1] | pest or weed control at 200 ppm (Phakopsora Pachyrhizi) | inhibition of growth at 20 ppm [2]

O=C(CC1CC1)N(CCO)Cc1ccc(-c2noc(C(F)(F)F)n2)cc1 [Compound 1.736, 2-cyclopropyl-N-(2-hydroxyethyl)-N-[[4-[5-(trifIuoromethyl)-1,2,4-oxadiazol-3-yl]phenyl]methyl]-acetamide]
≥ 80%: pest or weed control at 200 ppm [1] | pest or weed control at 200 ppm (Phakopsora Pachyrhizi) | inhibition of growth at 20 ppm [2]

O=C(CC1CC1)OCCN(Cc1ccc(-c2noc(C(F)(F)F)n2)cc1)C(=O)CC1CC1 [Compound 1.737, 2-[(2-cyclopropylacetyl)-[[4-[5-(trifluoromethyl)-1,2,4-oxadiazol-3-yl]phenyl]methyl]-amino]ethyl 2-cyclopropylacetate]
≥ 80%: pest or weed control at 200 ppm [1] | pest or weed control at 200 ppm (Phakopsora Pachyrhizi) | inhibition of growth at 20 ppm [2]

O=C(c1ccccc1Cl)N(O)Cc1ccc(-c2noc(C(F)(F)F)n2)cc1 [Compound 1.754, 2-chloro-N-hydroxy-N-[[4-[5-(trifluoromethyl)-1,2,4-oxadiazol-3-yl]phenyl]methyl]-benzamide]
≥ 80%: pest or weed control at 200 ppm [1] | pest or weed control at 200 ppm (Phakopsora Pachyrhizi) | inhibition of growth at 20 ppm [2]

CC(C)(C)OC(=O)ON(Cc1ccc(-c2noc(C(F)(F)F)n2)cc1)C(=O)OC(C)(C)C [Compound 2.21, [tert-butoxycarbonyl-[[4-[5-(trifluoromethyl)-1,2,4-oxadiazol-3-yl]phenyl]methyl]-amino]tert-butyl carbonate]
≥ 80%: pest or weed control at 200 ppm [1] | pest or weed control at 200 ppm (Phakopsora Pachyrhizi) | inhibition of growth at 20 ppm [2]

CON(Cc1ccc(-c2noc(C(F)(F)F)n2)cc1)C(=O)NC1CCCCC1 [Compound 3.11, 3-cyclohexyl-1-methoxy-1-[[4-[5-(trifluoromethyl)-1,2,4-oxadiazol-3-yl]phenyl]methyl]urea]
≥ 80%: pest or weed control at 200 ppm [1] | pest or weed control at 200 ppm (Phakopsora Pachyrhizi) | inhibition of growth at 20 ppm [2]

CON(Cc1ccc(-c2noc(C(F)(F)F)n2)cc1)C(=O)N(C)C#N [Compound 3.62, 1-cyano-3-methoxy-1-methyl-3-[[4-[5-(trifluoromethyl)-1,2,4-oxadiazol-3-yl]phenyl]methyl]urea]
≥ 80%: pest or weed control at 200 ppm [1] | pest or weed control at 200 ppm (Phakopsora Pachyrhizi) | inhibition of growth at 20 ppm [2]
